# Source: BindingDB's records for doi:10.1021/jm0303857 (Johnson & Johnson Pharmaceutical, 2005)
# Values joined by “and” are separate entries in the source; they are usually repeats but may differ in a detail not shown here. Equal values may be shown once.
# Experiments:
# Prothrombin = Prothrombin (Homo sapiens, UniProt P00734); test: Enzyme Inhibition Assay
# Description: Thrombin-catalyzed hydrolysis rates were measured spectrophotometrically using human alpha-thrombin, a chromogenic substrate in aqueous buffer, and a microplate reader. […] The IC50 values were determined by fixing the enzyme and substrate concentrations and varying the inhibitor concentration. Ki values were determined by fixing the enzyme and inhibitor concentrations and varying the substrate concentration. Michaelis-Menton kinetics was applied to the initial reaction slopes using the program K.Cat (Bio Metallics Inc.).
# Serine protease 1 = molecular target: T1, Serine protease 1 (Bos taurus, UniProt P00760); test: Enzyme Inhibition Assay
# T1 sequence (P00760 whole entry): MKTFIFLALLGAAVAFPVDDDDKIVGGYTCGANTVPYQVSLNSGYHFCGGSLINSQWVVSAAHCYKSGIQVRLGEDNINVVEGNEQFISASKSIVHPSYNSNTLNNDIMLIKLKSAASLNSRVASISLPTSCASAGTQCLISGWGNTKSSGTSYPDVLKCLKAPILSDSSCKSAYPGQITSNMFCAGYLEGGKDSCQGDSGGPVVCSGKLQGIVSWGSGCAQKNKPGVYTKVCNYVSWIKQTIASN
IC50 (Prothrombin),Ki (Serine protease 1),Ki (Prothrombin),Compound,other results
> 1000 nM,,,"CNCCCC[C@@H](NC(=O)[C@@H]1CCCN1C(=O)[C@@H](Cc1ccccc1)NC)C(=O)c1nc2ccccc2s1 [(2S)-N-[(2R)-1-(1,3-benzothiazol-2-yl)-6-(methylamino)-1-oxohexan-2-yl]-1-[(2R)-2-(methylamino)-3-phenylpropanoyl]pyrrolidine-2-carboxamide]",
> 100000 nM,,,"CN[C@H](Cc1ccccc1)C(=O)N1CCC[C@H]1C(=O)N[C@H](CC(=O)c1nc2ccccc2s1)C1CCC(N)CC1 (stereo partly drawn) [(2S)-N-[(1R)-1-(4-aminocyclohexyl)-3-(1,3-benzothiazol-2-yl)-3-oxopropyl]-1-[(2R)-2-(methylamino)-3-phenylpropanoyl]pyrrolidine-2-carboxamide]",IC50 (Serine protease 1): 58000 nM
> 1000 nM,,,"CNCCCC[C@H](NC(=O)[C@@H]1CCCN1C(=O)[C@@H](Cc1ccccc1)NC)C(=O)c1nc2ccccc2s1 [(2S)-N-[(2S)-1-(1,3-benzothiazol-2-yl)-6-(methylamino)-1-oxohexan-2-yl]-1-[(2R)-2-(methylamino)-3-phenylpropanoyl]pyrrolidine-2-carboxamide]",
19 nM,1.2 nM,2.1 nM,"CN[C@H](Cc1ccccc1)C(=O)N1CCC[C@H]1C(=O)NC(CCCN=C(N)N)C(=O)c1nccs1 (stereo partly drawn) [(2S)-N-[5-carbamimidamido-1-oxo-1-(1,3-thiazol-2-yl)pentan-2-yl]-1-[(2R)-2-(methylamino)-3-phenylpropanoyl]pyrrolidine-2-carboxamide]",
> 1000 nM,,,"CN[C@H](Cc1ccccc1)C(=O)N1CCC[C@H]1C(=O)N[C@@H](Cc1ccc(C(=N)N)cc1)C(=O)c1nc2ccccc2s1 [(2S)-N-[(2S)-1-(1,3-benzothiazol-2-yl)-3-(4-carbamimidoylphenyl)-1-oxopropan-2-yl]-1-[(2R)-2-(methylamino)-3-phenylpropanoyl]pyrrolidine-2-carboxamide]",
95 nM,2 nM,3.1 nM,"NC(N)=NCCCC(NC(=O)[C@@H]1CCCN1C(=O)C1(O)c2ccccc2-c2ccccc21)C(=O)c1nc2ccccc2s1 (stereo partly drawn) [(2S)-N-[1-(1,3-benzothiazol-2-yl)-5-carbamimidamido-1-oxopentan-2-yl]-1-[(9-hydroxy-9H-fluoren-9-yl)carbonyl]pyrrolidine-2-carboxamide]",
13000 nM,,,CN[C@H](Cc1ccccc1)C(=O)N1CCC[C@H]1C(=O)N[C@@H](CCCNC(=N)N)C(=O)c1cc2ccccc2s1,
17000 nM,54 nM,920 nM,"CN[C@H](Cc1ccccc1)C(=O)N1CCC[C@H]1C(=O)N[C@H](C(=O)c1nc2ccccc2s1)C1CCC(CN)CC1 (stereo partly drawn) [(2S)-N-[(1S)-1-[4-(aminomethyl)cyclohexyl]-2-(1,3-benzothiazol-2-yl)-2-oxoethyl]-1-[(2R)-2-(methylamino)-3-phenylpropanoyl]pyrrolidine-2-carboxamide]",
,,,"CN[C@@H](C(=O)N1CCC[C@H]1C(=O)N[C@@H](CCCN=C(N)N)C(=O)c1nc2ccccc2s1)C(c1ccccc1)c1ccccc1 [(2S)-N-[(2S)-1-(1,3-benzothiazol-2-yl)-5-carbamimidamido-1-oxopentan-2-yl]-1-[(2R)-2-(methylamino)-3,3-diphenylpropanoyl]pyrrolidine-2-carboxamide]",IC50 (Serine protease 1): 30 nM
1500 nM,5800 nM,200 nM,CN[C@H](Cc1ccccc1)C(=O)N1CCC[C@H]1C(=O)NC(CCCN=C(N)N)C(=O)c1nccn1C (stereo partly drawn) [(2S)-N-[5-carbamimidamido-1-(1-methyl-1H-imidazol-2-yl)-1-oxopentan-2-yl]-1-[(2R)-2-(methylamino)-3-phenylpropanoyl]pyrrolidine-2-carboxamide],
,,,"NC(N)=NCCCC(NC(=O)[C@@H]1CCCN1C(=O)[C@@H](N)Cc1ccccc1)C(=O)c1nc2ccccc2s1 (stereo partly drawn) [(2S)-1-[(2S)-2-amino-3-phenylpropanoyl]-N-[1-(1,3-benzothiazol-2-yl)-5-carbamimidamido-1-oxopentan-2-yl]pyrrolidine-2-carboxamide]",IC50 (Serine protease 1): 5.8 nM
,1.8 nM,,"NC(N)=NCCCC(NC(=O)[C@@H]1CCCN1C(=O)C(N)(c1ccccc1)c1ccccc1)C(=O)c1nc2ccccc2s1 (stereo partly drawn) [(2S)-1-(2-amino-2,2-diphenylacetyl)-N-[1-(1,3-benzothiazol-2-yl)-5-carbamimidamido-1-oxopentan-2-yl]pyrrolidine-2-carboxamide]","IC50 (Prothrombin; pH 7.4, 37 °C): 15 nM; Ki (Prothrombin; pH 7.4, 37 °C): 2.1 nM"
,3.9 nM,,"CC(N)(Cc1ccccc1)C(=O)N1CCC[C@H]1C(=O)NC(CCCN=C(N)N)C(=O)c1nc2ccccc2s1 (stereo partly drawn) [(2S)-1-(2-amino-2-benzylpropanoyl)-N-[1-(1,3-benzothiazol-2-yl)-5-carbamimidamido-1-oxopentan-2-yl]pyrrolidine-2-carboxamide]",
,2.7 nM,,"CN[C@H](Cc1ccccc1)C(=O)N1CCC[C@H]1C(=O)N[C@@H](CCCN=C(N)N)C(=O)c1nc2ccc(C(=O)O)cc2s1 [2-[(2S)-5-carbamimidamido-2-{[(2S)-1-[(2R)-2-(methylamino)-3-phenylpropanoyl]pyrrolidin-2-yl]formamido}pentanoyl]-1,3-benzothiazole-6-carboxylic acid]",
460 nM,87 nM,53 nM,CCS(=O)(=O)N[C@H](Cc1ccccc1)C(=O)N1CCC[C@H]1C(=O)N[C@@H](C(=O)c1nc2ccccc2s1)C1CCC(N)CC1 (stereo partly drawn) [The relative stereochemistry of the cyclohexyl ring is trans],
1900 nM,330 nM,110 nM,CN[C@H](Cc1ccccc1)C(=O)N1CCC[C@H]1C(=O)N[C@@H](C(=O)c1nc2ccccc2s1)C1CCC(N)CC1 (stereo partly drawn) [The relative stereochemistry of the cyclohexyl ring is trans],
48000 nM and 17000 nM,180000 nM and 250000 nM,5300 nM and 1600 nM,"CN[C@H](Cc1ccccc1)C(=O)N1CCC[C@H]1C(=O)NC(CCCN=C(N)N)C(O)c1nc2ccccc2s1 (stereo partly drawn) [(2S)-N-[1-(1,3-benzothiazol-2-yl)-5-carbamimidamido-1-hydroxypentan-2-yl]-1-[(2R)-2-(methylamino)-3-phenylpropanoyl]pyrrolidine-2-carboxamide]",
> 100000 nM,,,"CN[C@H](Cc1ccccc1)C(=O)N1CCC[C@H]1C(=O)N[C@@H](CC(=O)c1nc2ccccc2s1)C1CCC(N)CC1 (stereo partly drawn) [(2S)-N-[(1S)-1-(4-aminocyclohexyl)-3-(1,3-benzothiazol-2-yl)-3-oxopropyl]-1-[(2R)-2-(methylamino)-3-phenylpropanoyl]pyrrolidine-2-carboxamide]",IC50 (Serine protease 1): 22000 nM
,,,"CN[C@H](Cc1ccccc1)C(=O)N1CCC[C@H]1C(=O)NC(CCCN=C(N)N)C(=O)c1nc2ccccc2s1 (stereo partly drawn) [(2S)-N-[1-(1,3-benzothiazol-2-yl)-5-carbamimidamido-1-oxopentan-2-yl]-1-[(2R)-2-(methylamino)-3-phenylpropanoyl]pyrrolidine-2-carboxamide]","IC50 (Prothrombin; pH 7.4, 37 °C): 29 nM; Ki (Prothrombin; pH 7.4, 37 °C): 0.2 nM"
> 1000 nM,,,"CN[C@H](Cc1ccccc1)C(=O)N1CCC[C@H]1C(=O)N[C@@H](Cc1ccccc1)C(=O)c1nc2ccccc2s1 [(2S)-N-[(2S)-1-(1,3-benzothiazol-2-yl)-1-oxo-3-phenylpropan-2-yl]-1-[(2R)-2-(methylamino)-3-phenylpropanoyl]pyrrolidine-2-carboxamide]",
,,,"CN[C@@H](C(=O)N1CCC[C@H]1C(=O)NC(CCCN=C(N)N)C(=O)c1nc2ccccc2s1)c1ccccc1 (stereo partly drawn) [(2S)-N-[1-(1,3-benzothiazol-2-yl)-5-carbamimidamido-1-oxopentan-2-yl]-1-[(2R)-2-(methylamino)-2-phenylacetyl]pyrrolidine-2-carboxamide]",IC50 (Serine protease 1): 32 nM
,3.3 nM,,"CN[C@H](Cc1ccc(F)cc1)C(=O)N1CCC[C@H]1C(=O)NC(CCCN=C(N)N)C(=O)c1nc2ccccc2s1 (stereo partly drawn) [(2S)-N-[1-(1,3-benzothiazol-2-yl)-5-carbamimidamido-1-oxopentan-2-yl]-1-[(2R)-3-(4-fluorophenyl)-2-(methylamino)propanoyl]pyrrolidine-2-carboxamide]",
930 nM,73 nM,85 nM,CN[C@H](Cc1ccccc1)C(=O)N1CCC[C@H]1C(=O)NC(CCCN=C(N)N)C(=O)c1ccccn1 (stereo partly drawn) [(2S)-N-[5-carbamimidamido-1-oxo-1-(pyridin-2-yl)pentan-2-yl]-1-[(2R)-2-(methylamino)-3-phenylpropanoyl]pyrrolidine-2-carboxamide],
> 1000 nM,,,"CN[C@H](Cc1ccccc1)C(=O)N1CCC[C@H]1C(=O)N[C@@H](C(=O)c1nc2ccccc2s1)C1CCC(CN)CC1 (stereo partly drawn) [(2S)-N-[(1R)-1-[4-(aminomethyl)cyclohexyl]-2-(1,3-benzothiazol-2-yl)-2-oxoethyl]-1-[(2R)-2-(methylamino)-3-phenylpropanoyl]pyrrolidine-2-carboxamide]",

Compound,IC50 (Prothrombin),Ki (Serine protease 1),Ki (Prothrombin),other results
"N=C(N)NCCCCC(=O)c1nc2ccccc2s1 [3-[5-(1,3-benzothiazol-2-yl)-5-oxopentyl]guanidine]",> 300000 nM,> 100000 nM,,
"CN[C@@H](C(=O)N1CCC[C@H]1C(=O)N[C@@H](CCCN=C(N)N)C(=O)c1nc2ccccc2s1)C1CCCCC1 [(2S)-N-[(2S)-1-(1,3-benzothiazol-2-yl)-5-carbamimidamido-1-oxopentan-2-yl]-1-[(2R)-2-cyclohexyl-2-(methylamino)acetyl]pyrrolidine-2-carboxamide]",,1.2 nM,,"IC50 (Prothrombin; pH 7.4, 37 °C): 5.3 nM; Ki (Prothrombin; pH 7.4, 37 °C): 0.018 nM"
